Test results taken from patent publication US20090036380A1, “Composition And Method For Brain Tumor Therapy” (Yeda Research and Development Co., Ltd., priority 2006, published 2009).

Tests used:
Hek cells = assay: Viability (XTT) and morphology of Hek cells co-transfected with Karet and receptors; format: cell-based, human; settings: 24 hours after transfection; for cell morphology: microscope
Method: FIGS. 21a-q are photomicrographs of Hek cells 24 hours after transfection with karet, Trk receptors, EGFR and/or P75 constructs. […] FIG. 21a—cells transfected with TrkA and pcDNA3; FIG. 21b—TrkA and Karet; FIG. 21c—TrkA and Karet F217V; FIG. 21d—Karet and pcDNA4; FIG. 21e—Karet F217V and pcDNA4; FIG. 21f—TrIcA and pcDNA3; FIG. 21g—TrkB and pcDNA3; FIG. 21h—TrkC and pcDNA3; FIG. 21i—TrkA and Karet;
FIG. 21j—TrkB and Karet; FIG. 21k—TrkC and Karet; FIG. 21l—Karet and pcDNA3; FIG. 21m—TrkC (low concentration) and pcDNA3; FIG. 21n—EGFR-Flag and pcDNA3; FIG. 21o—p75 and pcDNA3; FIG. 21p—EGFR-Flag and Ha-Karet; FIG. 21q—p75 and Ha-Karet.
(§1) FIGS. 22a-b are histograms depicting the effect of co-transfection of Karet and TrkA on cell death in Hek (FIG. 22a) or NNR5 (FIG. 22b) cells. FIG. 22a—Hek cells were co-transfected with Karet or control vector and TrkA, TrkB and TrkC. Viability of the cells was measured 24 hours after transfection by XTT. *p<0.05; FIG. 22b—NNR5 cells were co-transfected with Karet or control vector and TrkA, TrkB and TrkC. Cells were analyzed by FACS 24 hours after transfection using the dead/live kit. ** p<0.001.
FIG. 23 is a histogram depicting the effect of co-transfection of EGFR and Karet on cell death in Hek cells. Hek cells were co-transfected with Karet or control vector and p75, EGFR and PTB. Viability of the cells was measured 24 hours after transfection by XTT. ** p<0.001.
Cell proliferation was evaluated using the Cell proliferation assay with XTT reagent (Cat. No. 20-300-1000), Biological Industries, Beth Haemek, Israel, according to manufacturer's instructions.
To test whether Karet is capable of inducing cell death in other cells such as human HEK or NNR5 cells, the cells were transfected with various receptors and Karet constructs and the effect on cell death was determined by microscopic observation of cell morphology and using cell viability assays, as follows.

NNR5 cells = assay: Viability of NNR5 cells transfected with Karet constructs with or without TrkA; format: cell-based, rat
Method: FIG. 5f is a viable cell count histogram depicting that the pro-apoptotic effect of Karet is TrkA dependent. NNR5 cells were electroporated with GFP with or without TrkA construct, or Karet with or without TrkA. Cells were incubated for 12 hours after electroporation and results are presented as percent of control (NNR5 transfected with GFP only, mean±SD, n=4, * p<0.05).
FIGS. 20a-q are immunochemistry (FIGS. 20a-p) and FACS (FIG. 20q) analyses of myristylated constructs of Karet, PTB and the non-PTB domain in PC12 (FIGS. 20a-p) or NNR5 (FIG. 20q) cells. Myristylated constructs of Karet (FIGS. 20e-h), PTB (FIGS. 20i-l) and the non-PTB domain (FIGS. 20m-p) or non-myristylated construct of Karet (FIGS. 20a-d) were transfected to PC12 cells and immunochemistry of the expressed constructs was performed using HA-antibody (FIG. 20a), the PTB-antibody (FIGS. 20e, i and m) or Lamin (a nuclear membrane protein)-antibody (FIGS. 20b, f, j, and n). Merged images of the two-color immunocytochemistry are shown in FIG. 20d (for anti-Ha and anti-lamin antibodies) or FIGS. 20h l, and p (for anti-PTB and anti-lamin antibodies). Note the cytoplasmic expression of non-myristylated Karet (FIG. 20a) as compared to the nuclear membrane expression of lamin (FIG. 20b). […] NNR5 cells were transfected with pcDNA3, Ha Karet and TrkA, Myr-Karet, Myr-PTB or Myr-non PTB constructs and the effect on cell viability was determined using calcein (the dead/Live kit). […]
as §1, with “FIG. 22a—Hek cells were co-transfected with Karet or control vector and TrkA, TrkB and TrkC.” left out
Viability of cells was evaluated using the Live/dead viability/cytotoxicity kit (Cat. No. L-3224), Molecular Probes, Inc., Eugene, Oreg., USA, according to manufacturer's instructions.

TrkC = target: T1, TrkC (Homo sapiens, UniProt Q16288); assay: Co-immunoprecipitation of Ha Karet with TrkC in Hek cells; format: binding; settings: co-transfected Hek cells
T1 construct: expressed in transfected cells; host or cells: Hek cells
Method: FIGS. 24a-d depict co IP of Ha Karet with TrkA, TrkB, TrkC, p75 from co-transfected Hek cells. Cells were co-transfected with Ha Karet or control vector and TrkA, TrkB, TrkC or p75. Cells were lysed with NP40, the HA-beads (beads conjugated to anti-HA antibody) were blocked with Hek lysate, and elution was done for 30 minutes at 37° C. Proteins from anti-HA-IP (FIGS. 24a and b) or from cell lysates without IP (FIGS. 24c and d) were subjected to Western blot analysis and the membranes were probed with anti pan trk (FIGS. 24a and c) or anti-p75 (FIGS. 24b and d) antibodies. Note the specific co-IP of Karet with TrkA (FIG. 24a, lane 1), Karet with TrkB (FIG. 24a, lane 3), Karet with TrkC (FIG. 24a, lane 5) and the lack of IP between karet and p75 (FIG. 24b, lane 7).

EGFR = target: T2, EGFR (Homo sapiens, UniProt P00533); assay: Co-immunoprecipitation of HA-Karet with EGFR in HEK cells; format: binding; settings: co-transfected HEK cells
T2 construct: expressed in transfected cells; host or cells: HEK cells
Method: FIG. 3g is a co-immunoprecipitation assay depicting co-immunoprecipitation of HA-Karet with EGFR in co-transfected HEK cells. Cells were co-transfected with Ha Karet or control vector and EGFR. Cells were lysed with NP40, the HA-beads (i.e., beads conjugated to HA antibody) were blocked with Hek lysate, and elution was done for 30 minutes at 37° C. The membranes were probed with anti FLAG antibody. Note the co-immunoprecipitation of Karet with EGFR in HEK cells.

TrkA = target: T3, TrkA; assay: Tyr phosphorylation of TrkA in PC12 6.24 cells; format: cell-based, human; settings: PC12-6.24 cells expressing Karet, anti-phospho-Tyr blot
T3 construct: expressed in transfected cells; host or cells: PC12 6.24 cells (rat PC12 stably overexpressing human TrkA; Hempstead et al., 1992)

[1] = Hek cells co-transfected with TrkA

T3 sequence (P04629 33-796): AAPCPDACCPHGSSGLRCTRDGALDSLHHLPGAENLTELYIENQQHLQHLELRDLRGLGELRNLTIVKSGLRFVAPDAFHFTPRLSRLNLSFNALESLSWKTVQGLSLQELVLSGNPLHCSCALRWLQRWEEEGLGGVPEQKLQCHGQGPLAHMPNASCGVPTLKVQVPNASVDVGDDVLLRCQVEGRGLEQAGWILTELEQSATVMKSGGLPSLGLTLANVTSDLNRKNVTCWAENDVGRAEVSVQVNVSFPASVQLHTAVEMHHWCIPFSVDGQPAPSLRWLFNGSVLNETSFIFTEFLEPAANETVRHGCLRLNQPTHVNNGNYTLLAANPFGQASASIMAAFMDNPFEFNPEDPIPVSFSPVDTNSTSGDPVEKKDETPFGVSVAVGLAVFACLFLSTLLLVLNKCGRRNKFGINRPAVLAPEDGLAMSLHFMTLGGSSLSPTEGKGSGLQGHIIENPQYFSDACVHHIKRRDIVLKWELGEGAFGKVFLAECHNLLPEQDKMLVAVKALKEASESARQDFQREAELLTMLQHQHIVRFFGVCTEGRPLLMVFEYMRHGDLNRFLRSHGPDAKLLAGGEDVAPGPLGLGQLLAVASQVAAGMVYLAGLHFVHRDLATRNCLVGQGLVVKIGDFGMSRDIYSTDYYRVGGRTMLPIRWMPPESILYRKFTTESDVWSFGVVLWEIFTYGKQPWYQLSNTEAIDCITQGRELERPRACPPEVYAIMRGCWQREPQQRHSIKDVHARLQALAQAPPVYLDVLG

| Substance | cell morphology (Hek cells; [1]) | cell viability (NNR5 cells; NNR5 (TrkA deficient), Karet without TrkA) | reduction in cell survival (NNR5 cells; NNR5 co-transfected with Karet and TrkA, 12 hours after electroporation, percent of control) | decrease in viability (NNR5 cells; NNR5 co-transfected with Karet and TrkA, FACS dead/live kit, 24 hours after transfection) [%] | decrease in living cells (Hek cells; HEK cells co-transfected with Karet and TrkA, XTT) [%] | decrease in cell viability (Hek cells; Hek cells co-transfected with EGFR and Karet, XTT) [%] | cell morphology (Hek cells; Hek cells co-transfected with EGFR) | co-immunoprecipitation with TrkC (TrkC) | co-immunoprecipitation with EGFR (EGFR) | phosphorylation of TrkA (TrkA) |
| --- | --- | --- | --- | --- | --- | --- | --- | --- | --- | --- |
| Karet F217V: full-length mouse Karet with phenyl alanine at position 217 point mutated to valine | transfection-induced cell death | – | – | – | – | – | – | – | – | – |
| Karet: full-length mouse Karet protein (SEQ ID NO:1), PTB domain protein, expressed from pcDNA3 with HA tag | morphology change which is consistent with cell death | no reduction in cell viability | about 20% | 13 | 50 | 40 | morphology change which is consistent with cell death | co-immunoprecipitated | co-immunoprecipitation | significantly enhanced the phosphorylation of the receptor |
